Experimental data reported in US8541464B2, “Treatment of atrial fibrillation” (HUYA Biosciences International LLC, priority 2009, dated 2013).
pIC50: −log10 of the molar value.

Experiments:
Fast Na [1] = assay: Ion channel profiling in isolated atrial cardiomyocytes; format: cell-based; conditions: Rabbit/atria isolated atrial cardiomyocytes
L-Ca = target: T1, L-Ca (Oryctolagus cuniculus, UniProt P15381); assay: as above; format: cell-based; conditions: Rabbit/atria isolated atrial cardiomyocytes
T1 construct: in isolated atrial cardiomyocytes; endogenous in cells; host or cells: isolated rabbit atrial cardiomyocytes

Ito [2] = assay: as above; format: cell-based; conditions: Rabbit/atria isolated atrial cardiomyocytes
IKr [3] = target: T2, IKr (Oryctolagus cuniculus, UniProt Q8WNY2); assay: as above; format: cell-based; conditions: Rabbit/atria isolated atrial cardiomyocytes
T2 construct: in isolated atrial cardiomyocytes; endogenous in cells; host or cells: isolated rabbit atrial cardiomyocytes

IKach = assay: as above; format: cell-based; conditions: Rabbit/atria isolated atrial cardiomyocytes
Fast Na [4] = target: T3, Fast Na (Homo sapiens, UniProt Q14524); assay: as above; format: cell-based; conditions: Human/atria isolated atrial cardiomyocytes
T3 construct: in isolated atrial cardiomyocytes; endogenous in cells; host or cells: isolated human atrial cardiomyocytes

Ito [5] = target: T4, Ito (Homo sapiens, UniProt Q9UK17); assay: as above; format: cell-based; conditions: Human/atria isolated atrial cardiomyocytes
T4 construct: in isolated atrial cardiomyocytes; endogenous in cells; host or cells: isolated human atrial cardiomyocytes

IKr [6] = target: T5, IKr (Homo sapiens, UniProt Q12809); assay: as above; format: cell-based; conditions: Human/atria isolated atrial cardiomyocytes
T5 construct: in isolated atrial cardiomyocytes; endogenous in cells; host or cells: isolated human atrial cardiomyocytes

Slow Na = target: T6, Slow Na (Homo sapiens, UniProt Q14524); assay: as above; format: cell-based; conditions: Human/atria isolated atrial cardiomyocytes
T6 construct: in isolated atrial cardiomyocytes; endogenous in cells; host or cells: isolated human atrial cardiomyocytes

IKur = target: T7, IKur (Homo sapiens, UniProt P22460); assay: as above; format: cell-based; conditions: Human/atria isolated atrial cardiomyocytes
T7 construct: in isolated atrial cardiomyocytes; endogenous in cells; host or cells: isolated human atrial cardiomyocytes

[7] = system: ion channels in human atrial cardiomyocytes; conditions: sulcardine and its salts, in vitro, reported; cited from earlier work
post-MI conscious canine = conditions: sulcardine and salts; cited from earlier work
rabbit ventricular wedge = conditions: sulcardine and salts; cited from earlier work
post-MI canine = conditions: sulcardine and salts; cited from earlier work

T2 sequence (Q8WNY2 whole entry): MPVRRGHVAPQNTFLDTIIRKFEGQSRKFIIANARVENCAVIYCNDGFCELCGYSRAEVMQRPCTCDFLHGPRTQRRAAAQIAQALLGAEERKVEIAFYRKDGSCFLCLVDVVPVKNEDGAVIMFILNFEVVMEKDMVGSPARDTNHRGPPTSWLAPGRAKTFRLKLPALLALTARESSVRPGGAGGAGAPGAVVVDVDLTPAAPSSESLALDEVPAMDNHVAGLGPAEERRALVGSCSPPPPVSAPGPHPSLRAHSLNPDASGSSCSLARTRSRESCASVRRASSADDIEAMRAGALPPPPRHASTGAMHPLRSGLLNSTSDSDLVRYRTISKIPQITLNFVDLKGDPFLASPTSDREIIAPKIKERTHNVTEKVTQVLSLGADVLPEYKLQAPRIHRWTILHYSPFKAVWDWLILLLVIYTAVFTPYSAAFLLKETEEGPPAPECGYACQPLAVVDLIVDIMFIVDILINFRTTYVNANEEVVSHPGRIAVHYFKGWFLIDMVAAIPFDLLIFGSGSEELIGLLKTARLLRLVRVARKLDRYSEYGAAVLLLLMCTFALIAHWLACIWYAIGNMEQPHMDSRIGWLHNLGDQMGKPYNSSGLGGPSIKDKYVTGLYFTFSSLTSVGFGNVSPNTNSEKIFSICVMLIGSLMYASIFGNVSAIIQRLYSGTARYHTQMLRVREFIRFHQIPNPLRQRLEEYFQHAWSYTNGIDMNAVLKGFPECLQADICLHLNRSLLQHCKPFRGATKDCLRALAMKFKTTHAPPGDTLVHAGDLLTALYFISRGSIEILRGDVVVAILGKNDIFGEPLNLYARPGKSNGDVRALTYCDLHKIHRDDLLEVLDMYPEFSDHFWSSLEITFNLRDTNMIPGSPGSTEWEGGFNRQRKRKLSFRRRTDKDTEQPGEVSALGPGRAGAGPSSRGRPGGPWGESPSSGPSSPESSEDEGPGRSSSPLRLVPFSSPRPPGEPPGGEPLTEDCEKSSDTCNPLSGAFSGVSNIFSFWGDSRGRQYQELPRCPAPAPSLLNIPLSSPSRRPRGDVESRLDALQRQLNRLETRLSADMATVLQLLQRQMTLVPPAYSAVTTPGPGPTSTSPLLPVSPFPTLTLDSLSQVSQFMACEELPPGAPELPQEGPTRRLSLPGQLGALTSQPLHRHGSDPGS
T1 sequence (P15381 whole entry, other chains not shown): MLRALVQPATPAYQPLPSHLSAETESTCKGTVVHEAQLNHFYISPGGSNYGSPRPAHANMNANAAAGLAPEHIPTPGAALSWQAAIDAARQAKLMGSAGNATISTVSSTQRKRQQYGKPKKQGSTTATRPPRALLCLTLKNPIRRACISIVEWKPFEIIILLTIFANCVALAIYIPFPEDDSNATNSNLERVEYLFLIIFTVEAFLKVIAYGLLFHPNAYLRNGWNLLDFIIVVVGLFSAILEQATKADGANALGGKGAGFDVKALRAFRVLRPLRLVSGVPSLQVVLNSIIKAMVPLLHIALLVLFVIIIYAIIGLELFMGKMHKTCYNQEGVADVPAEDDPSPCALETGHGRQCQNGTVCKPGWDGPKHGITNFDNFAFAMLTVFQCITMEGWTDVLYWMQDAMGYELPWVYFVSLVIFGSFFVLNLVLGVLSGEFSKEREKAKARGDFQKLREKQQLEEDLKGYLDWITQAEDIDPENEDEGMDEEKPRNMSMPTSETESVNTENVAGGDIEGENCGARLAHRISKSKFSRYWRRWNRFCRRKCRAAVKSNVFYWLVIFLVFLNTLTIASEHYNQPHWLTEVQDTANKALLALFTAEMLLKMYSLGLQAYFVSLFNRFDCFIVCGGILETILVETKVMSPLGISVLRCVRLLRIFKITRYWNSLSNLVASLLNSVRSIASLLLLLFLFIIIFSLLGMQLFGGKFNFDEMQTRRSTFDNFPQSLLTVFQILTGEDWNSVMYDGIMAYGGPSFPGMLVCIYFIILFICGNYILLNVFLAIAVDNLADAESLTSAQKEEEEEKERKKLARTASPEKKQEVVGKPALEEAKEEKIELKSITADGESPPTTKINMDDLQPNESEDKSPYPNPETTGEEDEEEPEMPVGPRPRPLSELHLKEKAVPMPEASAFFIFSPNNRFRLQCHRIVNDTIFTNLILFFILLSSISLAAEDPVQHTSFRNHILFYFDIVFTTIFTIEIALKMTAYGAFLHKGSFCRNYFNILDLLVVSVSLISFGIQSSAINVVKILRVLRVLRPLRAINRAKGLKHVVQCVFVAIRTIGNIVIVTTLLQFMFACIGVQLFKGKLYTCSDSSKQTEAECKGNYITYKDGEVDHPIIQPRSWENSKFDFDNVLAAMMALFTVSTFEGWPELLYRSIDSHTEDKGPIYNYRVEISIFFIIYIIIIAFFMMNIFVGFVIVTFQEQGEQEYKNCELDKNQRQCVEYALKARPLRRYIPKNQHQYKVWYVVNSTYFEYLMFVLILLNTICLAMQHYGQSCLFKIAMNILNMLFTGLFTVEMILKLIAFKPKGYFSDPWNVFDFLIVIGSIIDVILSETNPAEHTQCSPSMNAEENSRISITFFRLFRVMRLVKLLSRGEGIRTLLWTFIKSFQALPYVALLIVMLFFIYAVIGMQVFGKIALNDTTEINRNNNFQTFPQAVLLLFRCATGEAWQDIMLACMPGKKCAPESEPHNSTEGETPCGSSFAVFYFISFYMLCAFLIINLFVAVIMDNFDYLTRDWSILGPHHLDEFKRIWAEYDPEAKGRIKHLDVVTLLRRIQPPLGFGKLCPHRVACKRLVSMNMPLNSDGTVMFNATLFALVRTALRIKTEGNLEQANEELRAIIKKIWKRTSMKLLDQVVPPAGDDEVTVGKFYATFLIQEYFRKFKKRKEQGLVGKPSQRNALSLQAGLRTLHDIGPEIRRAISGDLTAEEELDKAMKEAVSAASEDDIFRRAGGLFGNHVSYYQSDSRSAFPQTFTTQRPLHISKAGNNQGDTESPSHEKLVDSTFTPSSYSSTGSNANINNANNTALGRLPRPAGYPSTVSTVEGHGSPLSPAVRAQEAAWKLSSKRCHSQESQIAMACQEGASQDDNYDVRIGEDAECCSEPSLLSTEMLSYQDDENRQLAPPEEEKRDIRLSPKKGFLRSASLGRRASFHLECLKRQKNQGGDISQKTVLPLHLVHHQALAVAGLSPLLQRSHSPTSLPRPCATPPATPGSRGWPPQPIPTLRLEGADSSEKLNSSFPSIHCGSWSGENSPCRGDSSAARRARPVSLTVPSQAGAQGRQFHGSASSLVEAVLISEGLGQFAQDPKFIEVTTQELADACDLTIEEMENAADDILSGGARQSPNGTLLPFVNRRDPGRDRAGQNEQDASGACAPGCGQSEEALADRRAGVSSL
T1 sequence (P13806 27-1106 partner, other chains not shown): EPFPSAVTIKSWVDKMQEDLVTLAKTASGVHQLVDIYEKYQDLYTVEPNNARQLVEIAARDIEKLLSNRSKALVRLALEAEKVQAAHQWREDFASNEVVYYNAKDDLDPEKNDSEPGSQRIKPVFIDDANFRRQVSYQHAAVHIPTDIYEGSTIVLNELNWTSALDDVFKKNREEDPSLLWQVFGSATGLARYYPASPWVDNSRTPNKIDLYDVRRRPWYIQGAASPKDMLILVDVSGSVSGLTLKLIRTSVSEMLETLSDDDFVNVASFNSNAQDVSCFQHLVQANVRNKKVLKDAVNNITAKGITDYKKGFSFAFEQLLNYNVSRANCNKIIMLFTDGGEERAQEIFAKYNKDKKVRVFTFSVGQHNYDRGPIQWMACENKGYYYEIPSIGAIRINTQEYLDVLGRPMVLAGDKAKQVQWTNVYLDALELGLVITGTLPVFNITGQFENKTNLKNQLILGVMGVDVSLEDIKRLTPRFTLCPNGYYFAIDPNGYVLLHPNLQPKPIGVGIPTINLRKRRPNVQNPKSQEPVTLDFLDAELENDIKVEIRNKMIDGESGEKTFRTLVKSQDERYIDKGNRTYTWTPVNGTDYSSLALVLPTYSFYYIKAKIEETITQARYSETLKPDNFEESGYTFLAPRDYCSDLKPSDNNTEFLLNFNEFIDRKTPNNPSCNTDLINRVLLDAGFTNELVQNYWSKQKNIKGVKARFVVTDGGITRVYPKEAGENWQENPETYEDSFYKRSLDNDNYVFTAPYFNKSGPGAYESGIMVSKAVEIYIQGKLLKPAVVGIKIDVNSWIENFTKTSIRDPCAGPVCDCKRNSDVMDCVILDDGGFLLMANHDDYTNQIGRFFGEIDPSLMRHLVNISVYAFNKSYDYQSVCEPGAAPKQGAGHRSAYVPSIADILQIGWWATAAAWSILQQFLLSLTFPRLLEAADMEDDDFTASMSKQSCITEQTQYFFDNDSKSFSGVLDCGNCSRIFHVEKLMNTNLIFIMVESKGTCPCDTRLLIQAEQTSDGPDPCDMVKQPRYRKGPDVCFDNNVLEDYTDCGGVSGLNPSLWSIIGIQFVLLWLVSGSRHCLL
T7 sequence (P22460 whole entry): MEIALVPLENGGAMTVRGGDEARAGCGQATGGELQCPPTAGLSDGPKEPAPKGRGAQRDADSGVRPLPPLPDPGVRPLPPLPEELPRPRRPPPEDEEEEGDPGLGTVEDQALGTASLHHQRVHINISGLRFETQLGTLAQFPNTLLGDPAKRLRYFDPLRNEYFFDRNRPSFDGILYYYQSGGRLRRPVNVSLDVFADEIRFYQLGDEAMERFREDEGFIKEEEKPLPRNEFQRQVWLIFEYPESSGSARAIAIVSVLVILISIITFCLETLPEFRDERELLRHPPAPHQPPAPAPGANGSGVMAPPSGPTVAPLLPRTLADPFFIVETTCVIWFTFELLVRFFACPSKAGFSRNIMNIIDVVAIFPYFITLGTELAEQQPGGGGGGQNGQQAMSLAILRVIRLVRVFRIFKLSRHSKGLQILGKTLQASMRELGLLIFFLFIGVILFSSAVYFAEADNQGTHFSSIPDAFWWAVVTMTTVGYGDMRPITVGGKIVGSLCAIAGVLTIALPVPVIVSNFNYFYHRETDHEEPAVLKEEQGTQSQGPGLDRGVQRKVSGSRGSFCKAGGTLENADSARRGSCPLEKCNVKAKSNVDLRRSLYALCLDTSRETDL

With “4-methoxy-N-(3,5-bis-(1-pyrrolidinyl)-4-hydroxy benzyl)benzene sulfonamide [sulcardine]” the pIC50 (Fast Na [1]) was 4.47, the pIC50 (L-Ca) was 4.27 and the pIC50 (Ito [2]) was 4.59. It also gave a pIC50 (IKr [3]) of 4.21, a pIC50 (IKach) of 3.89 and a pIC50 (Fast Na [4]) of 4.59. It also gave a pIC50 (Ito [5]) of 4.00, a pIC50 (IKr [6]) of 4.40 and a pIC50 (Slow Na) of 4.35. For the same substance, the pIC50 (IKur) was less than 3.72, the pIC50 [7] was 4.00 to 4.59 and the pro-arrhythmic activity (post-MI conscious canine) was “lack significant pro-arrhythmic activity”. The pro-arrhythmic activity (rabbit ventricular wedge) was “lack significant pro-arrhythmic activity” and the defibrillation threshold (post-MI canine) was “do not increase defibrillation threshold”.
